Experiments:
DA neurons in the VTA = assay: Electrophysiology: spontaneous DA cell firing in the VTA of anaesthetised rats; type: in vivo, rat; conditions: mean ± SEM
Description: Subjects. Male Wistar rats (Harlan, The Netherlands) weighing 270-340 g were used. The animals were housed under a 12-hr light/dark cycle under controlled conditions for regular in-door temperature (21±2° C.) and humidity (55±5%) with food and tap water available ad libitum.
Experimental procedure. The rats were anaesthetised with an intraperitoneal injection of chloral hydrate (400 mg/kg). A femoral vein catheter was then inserted for supplementary anaesthetic injections (100 mg/kg) and drug administration. Animals were then mounted in a stereotaxic frame, the skull was exposed, and a hole (0.5×0.5 cm) was drilled above the ventral tegmental area. Extracellular single-cell recordings were performed using electrodes pulled from glass capillaries and filled with 2% Pontamine Sky Blue in 2 M NaCl. The tip of the electrode was broken under microscopic control, yielding an impedance of 2.0-8.0 MΩ a 135 Hz. The electrode was then lowered into the brain, using a hydraulic microdrive, aimed at the following coordinates: 5.5-5.0 mm posterior to Bregma; 0.5-0.9 mm lateral to the midline. Extracellular action potentials were amplified, discriminated and monitored on an oscilloscope and an audiomonitor. Discriminated spikes were collected and analysed using Spike 2 software (Cambridge Electronic Design Ltd., Cambridge, UK) on a PC-based system connected to a CED 1401 interface unit (Cambridge Electronic Design Ltd.). Presumed dopaminergic neurons were typically found 7.0-8.5 mm beneath the brain surface and were characterised by (1) a slow and irregular firing pattern (0.5-10 Hz), and (2) triphasic action potentials with a predominant positive component, a negative component followed by a minor positive component, with an overall duration >2.5 ms (Bunney et al. 1973, J. Pharmacol. Exp. They., 185, 560-571.).
Administration of compounds. Once a stable basal firing rate was obtained, cumulated doses of N-(2,6-Dimethyl-4-morpholin-4-yl-phenyl)-3,3-dimethyl-butyramide ([…]; volume range 0.12-1.0 ml/kg) were administered i.v., each injection being separated by at least 3 min. These i.v. doses match the s.c. dose range of 0-10 mg/kg.
Statistical analysis. Drug effects were assessed by statistical comparison of the mean firing rate calculated from the 2-3 min period immediately before the first drug administration (baseline) to the mean firing rate calculated from at least 60 s at the maximal drug effect. Data were analysed statistically by a one-way ANOVA followed by Student-Newman-Keuls posthoc test. A p-value less than 0.05 was considered significant.

Male NMRI mice = assay: Amphetamine sensitisation: inhibition of the sensitised behavioural response to amphetamine; type: in vivo, mouse; conditions: Mus musculus; amphetamine-pretreated mice; s.c. 30 min before D-amphetamine challenge 1.25 mg/kg s.c.; 30 min test; S.D. in brackets
Description: Subjects. […] The animals were housed 6 mice pr cage in a 12-hr light/dark cycle under controlled conditions for regular in-door temperature (21±2° C.) and humidity (55±5%) with food and tap water available ad libitum.
Experimental procedure. […] 5×8 infrared light sources and photocells interspaced by 4 cm monitor the locomotor activity.
Administration of compounds.
Data analyses. […] A therapeutic index value can subsequently be calculated by dividing the first ED50 by the second.

Male Wistar rats = assay: Conditioned avoidance response; type: in vivo, rat; conditions: for % inhibition of avoidance (Std. dev.) Relative to baseline: rats
Description: Subjects. Male Wistar rats (Taconic, Denmark) weighing 150 g at the beginning of the study were used. The rats were housed in pairs and maintained on a 12 h light/dark cycle (lights on 06:00). The animals were fed once daily (approx. 6 pellets/rat) in order to keep the rats at 80% of their free-feeding weight. Water was available ad libitum. Temperature (21±1° C.) and relative humidity (55±5%) were automatically controlled.
Experimental procedure. Conditioned avoidance testing was conducted using four automated shuttle-boxes (ENV-010M, MED-Associates) each placed in a sound-attenuated chamber. Each box was divided into two compartments by a partition with an opening. The position of the animal and crossings from one compartment to the other were detected by two photocells placed on either side of the dividing wall. Upon presentation of the conditioned stimuli (CS), tone and light, the animals have 10 s to cross to the other compartment of the shuttle-box in order to turn the CS off (end the trial) and avoid the appearance of the unconditioned stimulus (UCS). If the rat remained in the same compartment for more than 10 s, the UCS is presented as 0.5 mA scrambled foot-shocks until escape was performed or 10 s in maximal duration. The following behavioural variables were evaluated: avoidance (response to CS within 10 s); escape (reponse to CS+UCS); escape failures (failure to respond); intertrial crosses and locomotor activity. The rats were habituated to the shuttle-box 3 min before each test session. During training each test session consists of 30 trials with intertrial intervals varying randomly between 20 s and 30 s. Training was carried until the rats display an avoidance of 80% or more, on 3 consecutive days. […]
Statistical analyses. The effects of compounds on avoidance and escape failure behaviours were statistically evaluated by means of a two-way repeated measures ANOVA followed by post hoc comparisons (Student-Newman-Keuls Method) when appropriate. […]

Cc1cc(N2CCOCC2)cc(C)c1NC(=O)CC(C)(C)C [N-(2,6-dimethyl-4-morpholin-4-yl-phenyl)-3,3-dimethyl-butyramide]
Spontaneous DA cell firing rate as a percentage of baseline firing rate (DA neurons in the VTA; cumulated dose 0.03 mg/kg i.v.): 89.8 ± 4.5 (5) percentage of baseline firing rate | Spontaneous DA cell firing rate as a percentage of baseline firing rate (DA neurons in the VTA; cumulated dose 0.1 mg/kg i.v.): 81.0 ± 4.0 (5) percentage of baseline firing rate | Spontaneous DA cell firing rate as a percentage of baseline firing rate (DA neurons in the VTA; cumulated dose 0.25 mg/kg i.v.): 74.1 ± 6.3 (4) percentage of baseline firing rate | Spontaneous DA cell firing rate as a percentage of baseline firing rate (DA neurons in the VTA; cumulated dose 0.5 mg/kg i.v.): 68.1 ± 6.0 (4) percentage of baseline firing rate | Spontaneous DA cell firing rate as a percentage of baseline firing rate (DA neurons in the VTA; cumulated dose 1.0 mg/kg i.v.): 57.1 ± 7.9 (3) percentage of baseline firing rate | ED50 (Male NMRI mice): 1.6 mg/kg | % inhibition of avoidance (Std. dev.) Relative to baseline (Male Wistar rats; 2.5 mg/kg s.c. 30 min before the test): 1 (14) % | % inhibition of avoidance (Std. dev.) Relative to baseline (Male Wistar rats; 5 mg/kg s.c. 30 min before the test): 71% | Escape failures (effect on motor performance) (Male Wistar rats; 2.5 and 5 mg/kg s.c., data not shown): None of the tested doses caused any incidences of escape failures

Source: patent publication US20120165325A1, “Stable forms of N-(2,6-Dimethyl-4-morpholin-4-yl-phenyl)-3,3-dimethyl-butyramide” (H. Lundbeck A/S, priority 2009, published 2012)
